According to patent publication US20250302832A1, “PYRAZINE DERIVATIVES AND USES THEREOF” (FOGHORN THERAPEUTICS INC., priority 2022, published 2025):

How the values were obtained:
[1] = target: T1, HiBit-BRM fusion protein (Homo sapiens, UniProt P51531); assay: HiBiT-BRM cell-based degradation assay (Nano-Glo HiBiT lytic detection, 24 h); settings: HeLa cell line expressing HiBiT-BRM; for DC50: read-out: BRM HiBit Degradation IC50
T1 construct: expressed in transfected cells
How it was run: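 Stable HeLa HiBiT-BRM cells treated 24 h with compounds (10-point 3-fold dilutions, 30 μM final top dose, duplicate). HiBiT levels read by Nano-Glo lytic luminescence; % degradation normalised to DMSO (high control) and 2 μM reference BRM/BRG1 degrader (low control).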

[2] = target: T2, HiBit-BRG1 fusion protein (Homo sapiens, UniProt P51532); assay: HiBiT-BRG1 cell-based degradation assay (Nano-Glo HiBiT lytic detection, 24 h); settings: HeLa cell line expressing HiBit-BRG1 and LgBit, read-out: BRG1 HiBit Degradation Maximum (%)
T2 construct: expressed in transfected cells
T2 sequence (P51532 whole entry, the tested form may be a part): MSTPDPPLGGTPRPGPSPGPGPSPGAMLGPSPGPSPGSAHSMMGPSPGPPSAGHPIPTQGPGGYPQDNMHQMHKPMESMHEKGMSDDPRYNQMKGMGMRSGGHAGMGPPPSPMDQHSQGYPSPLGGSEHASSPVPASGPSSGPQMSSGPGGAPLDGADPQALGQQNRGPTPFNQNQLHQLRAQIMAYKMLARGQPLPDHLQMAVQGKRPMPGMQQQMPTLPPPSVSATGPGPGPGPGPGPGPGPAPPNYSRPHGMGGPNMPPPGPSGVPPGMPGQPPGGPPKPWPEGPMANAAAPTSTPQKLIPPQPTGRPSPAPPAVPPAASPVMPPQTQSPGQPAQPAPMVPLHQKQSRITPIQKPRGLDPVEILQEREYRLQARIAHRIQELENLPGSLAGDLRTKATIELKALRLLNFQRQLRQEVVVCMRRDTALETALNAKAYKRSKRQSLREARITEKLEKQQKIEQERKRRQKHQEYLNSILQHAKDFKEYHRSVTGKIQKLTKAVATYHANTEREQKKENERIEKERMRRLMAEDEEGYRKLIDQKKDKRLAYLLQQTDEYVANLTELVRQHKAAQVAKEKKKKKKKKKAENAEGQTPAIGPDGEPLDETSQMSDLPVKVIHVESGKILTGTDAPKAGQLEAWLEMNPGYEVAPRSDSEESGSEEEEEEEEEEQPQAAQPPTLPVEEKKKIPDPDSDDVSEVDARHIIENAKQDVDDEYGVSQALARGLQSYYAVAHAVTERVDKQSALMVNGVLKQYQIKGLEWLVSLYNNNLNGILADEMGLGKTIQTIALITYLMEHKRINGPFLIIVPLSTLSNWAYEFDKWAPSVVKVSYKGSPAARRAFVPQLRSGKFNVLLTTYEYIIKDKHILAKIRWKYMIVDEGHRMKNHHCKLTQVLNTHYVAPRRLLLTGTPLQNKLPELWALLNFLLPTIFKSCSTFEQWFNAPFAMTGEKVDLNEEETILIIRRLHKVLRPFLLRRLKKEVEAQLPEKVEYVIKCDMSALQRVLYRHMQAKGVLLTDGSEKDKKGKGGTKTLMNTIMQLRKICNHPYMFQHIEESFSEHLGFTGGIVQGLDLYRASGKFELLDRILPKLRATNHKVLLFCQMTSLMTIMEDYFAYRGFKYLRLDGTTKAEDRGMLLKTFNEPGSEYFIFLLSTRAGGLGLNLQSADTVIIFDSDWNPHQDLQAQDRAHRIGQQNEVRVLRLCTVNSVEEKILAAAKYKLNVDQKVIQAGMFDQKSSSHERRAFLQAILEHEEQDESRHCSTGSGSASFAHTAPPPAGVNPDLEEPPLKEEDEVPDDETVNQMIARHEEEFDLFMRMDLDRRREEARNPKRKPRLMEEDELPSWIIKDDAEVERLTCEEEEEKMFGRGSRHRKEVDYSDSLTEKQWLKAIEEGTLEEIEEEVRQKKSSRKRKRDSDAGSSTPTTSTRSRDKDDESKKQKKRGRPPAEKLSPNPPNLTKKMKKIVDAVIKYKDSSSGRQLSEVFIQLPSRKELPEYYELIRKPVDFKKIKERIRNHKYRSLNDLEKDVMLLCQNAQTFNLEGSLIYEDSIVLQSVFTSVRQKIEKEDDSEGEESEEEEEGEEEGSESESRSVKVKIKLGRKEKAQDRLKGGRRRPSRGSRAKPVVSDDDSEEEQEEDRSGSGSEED
How it was run: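 HeLa cells stably expressing HiBiT-BRG1 and LgBiT, 5000 per well, compound-treated 24 h, equilibrated 15 min at room temperature, then lysed with LgBiT-containing Nano-Glo HiBiT lytic reagent and luminescence read. % degradation normalised between DMSO (high control) and 2 μM reference BRM/BRG1 degrader (low control).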

T1 sequence (P51531 whole entry, the tested form may be a part): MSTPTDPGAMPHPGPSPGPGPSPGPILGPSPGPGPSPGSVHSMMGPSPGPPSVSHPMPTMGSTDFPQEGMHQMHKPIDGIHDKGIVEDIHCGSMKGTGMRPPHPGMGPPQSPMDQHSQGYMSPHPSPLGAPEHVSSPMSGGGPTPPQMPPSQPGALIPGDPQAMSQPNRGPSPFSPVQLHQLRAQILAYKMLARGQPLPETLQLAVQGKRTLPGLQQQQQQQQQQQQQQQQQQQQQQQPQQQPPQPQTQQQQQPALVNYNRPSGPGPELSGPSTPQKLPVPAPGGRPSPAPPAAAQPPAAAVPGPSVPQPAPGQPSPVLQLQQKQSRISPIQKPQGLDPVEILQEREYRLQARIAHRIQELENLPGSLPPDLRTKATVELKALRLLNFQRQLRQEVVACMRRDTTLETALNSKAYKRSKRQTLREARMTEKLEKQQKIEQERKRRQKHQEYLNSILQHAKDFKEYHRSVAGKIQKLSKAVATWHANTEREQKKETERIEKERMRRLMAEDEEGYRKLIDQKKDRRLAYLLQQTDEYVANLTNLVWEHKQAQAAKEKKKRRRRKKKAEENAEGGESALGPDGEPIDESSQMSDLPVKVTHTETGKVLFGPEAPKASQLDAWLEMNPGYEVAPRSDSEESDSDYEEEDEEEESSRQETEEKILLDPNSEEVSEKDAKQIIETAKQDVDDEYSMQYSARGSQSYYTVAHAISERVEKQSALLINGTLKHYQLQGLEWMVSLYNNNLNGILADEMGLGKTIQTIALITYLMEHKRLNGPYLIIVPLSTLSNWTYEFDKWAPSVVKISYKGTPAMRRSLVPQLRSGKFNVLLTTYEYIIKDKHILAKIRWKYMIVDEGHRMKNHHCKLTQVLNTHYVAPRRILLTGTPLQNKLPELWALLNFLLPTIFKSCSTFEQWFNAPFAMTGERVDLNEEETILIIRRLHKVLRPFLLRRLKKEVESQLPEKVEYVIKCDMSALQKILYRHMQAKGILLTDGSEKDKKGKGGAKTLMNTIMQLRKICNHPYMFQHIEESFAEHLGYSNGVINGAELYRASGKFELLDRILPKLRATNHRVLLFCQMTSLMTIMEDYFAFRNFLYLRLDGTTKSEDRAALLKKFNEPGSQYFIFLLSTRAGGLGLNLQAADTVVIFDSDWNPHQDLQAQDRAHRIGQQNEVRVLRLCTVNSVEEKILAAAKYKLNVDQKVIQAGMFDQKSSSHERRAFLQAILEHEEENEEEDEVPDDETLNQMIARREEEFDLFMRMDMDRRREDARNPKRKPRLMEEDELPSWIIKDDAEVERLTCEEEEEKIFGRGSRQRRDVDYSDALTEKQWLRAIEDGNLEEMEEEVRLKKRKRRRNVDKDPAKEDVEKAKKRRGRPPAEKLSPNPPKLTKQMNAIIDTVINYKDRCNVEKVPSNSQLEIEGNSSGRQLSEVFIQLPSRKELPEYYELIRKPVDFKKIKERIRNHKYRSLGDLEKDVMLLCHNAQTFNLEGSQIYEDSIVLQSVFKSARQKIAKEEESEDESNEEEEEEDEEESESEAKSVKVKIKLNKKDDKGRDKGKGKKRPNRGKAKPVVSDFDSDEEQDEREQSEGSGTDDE

| SMILES | DC50 [1] [nM] | Dmax [2] [%] | BRM HiBit Degradation Maximum (%) [1] |
| --- | --- | --- | --- |
| CC(C)C(C(=O)N1C[C@H](O)C[C@H]1C(=O)N[C@@H](C)c1ccccc1)c1cc(N2CC3(CC(c4cc5nnc(-c6ccccc6O)cc5n4C4CCC4)C3)C2)no1 (stereo partly drawn) [Compound 49, (2S,4R)-1-[2-(3-{6-[5-cyclobutyl-3-(2-hydroxyphenyl)pyrrolo[3,2-c]pyridazin-6-yl]-2-azaspiro[3.3]heptan-2-yl}-1,2-oxazol-5-yl)-3-methylbutanoyl]-4-hydroxy-N-[(1S)-1-phenylethyl]pyrrolidine-2-carboxamide] | > 10 | < 50 | A (“A” indicates maximum degradation ≥75%) |
| CC[C@H](C)NC(=O)[C@@H]1C[C@@H](O)CN1C(=O)C(c1cc(N2CC3(CC(c4cc5nnc(-c6ccccc6O)cc5n4C4CCC4)C3)C2)no1)C(C)C (stereo partly drawn) [Compound 51, (2S,4R)-N-((S)-sec-butyl)-1-(2-(3-(6-(5-cyclobutyl-3-(2-hydroxyphenyl)-5H-pyrrolo[3,2-c]pyridazin-6-yl)-2-azaspiro[3.3]heptan-2-yl)isoxazol-5-yl)-3-methylbutanoyl)-4-hydroxypyrrolidine-2-carboxamide] | > 10 | < 50 | A (“A” indicates maximum degradation ≥75%) |
| CC(C)NC(=O)[C@@H]1C[C@@H](O)CN1C(=O)C(c1cc(N2CC3(CC(c4cc5nnc(-c6ccccc6O)cc5n4C4CCC4)C3)C2)no1)C(C)C (stereo partly drawn) [Compound 54, (2S,4R)-1-(2-(3-(6-(5-cyclobutyl-3-(2-hydroxyphenyl)-5H-pyrrolo[3,2-c]pyridazin-6-yl)-2-azaspiro[3.3]heptan-2-yl)isoxazol-5-yl)-3-methylbutanoyl)-4-hydroxy-N-isopropylpyrrolidine-2-carboxamide] | > 10 | < 50 | A (“A” indicates maximum degradation ≥75%) |
| CC(C)C(C(=O)N1C[C@H](O)C[C@H]1C(=O)NCC1CC1)c1cc(N2CC3(CC(c4cc5nnc(-c6ccccc6O)cc5n4C4CCC4)C3)C2)no1 (stereo partly drawn) [Compound 55, (2S,4R)-1-(2-(3-(6-(5-cyclobutyl-3-(2-hydroxyphenyl)-5H-pyrrolo[3,2-c]pyridazin-6-yl)-2-azaspiro[3.3]heptan-2-yl)isoxazol-5-yl)-3-methylbutanoyl)-N-(cyclopropylmethyl)-4-hydroxypyrrolidine-2-carboxamide] | > 10 | < 50 | A (“A” indicates maximum degradation ≥75%) |
| CC(C)C(C(=O)N1C[C@H](O)C[C@H]1C(=O)NC1CC1)c1cc(N2CC3(CC(c4cc5nnc(-c6ccccc6O)cc5n4C4CCC4)C3)C2)no1 (stereo partly drawn) [Compound 56, (2S,4R)-1-(2-(3-(6-(5-cyclobutyl-3-(2-hydroxyphenyl)-5H-pyrrolo[3,2-c]pyridazin-6-yl)-2-azaspiro[3.3]heptan-2-yl)isoxazol-5-yl)-3-methylbutanoyl)-N-cyclopropyl-4-hydroxypyrrolidine-2-carboxamide] | > 10 | < 50 | A (“A” indicates maximum degradation ≥75%) |
| C#Cc1ccc([C@H](C)NC(=O)[C@@H]2C[C@@H](O)CN2C(=O)C(c2cc(N3CC4(CC(c5cc6nnc(-c7ccccc7O)cc6n5C5CCC5)C4)C3)no2)C(C)C)cc1 (stereo partly drawn) [Compound 60, (2S,4R)-1-(2-(3-(6-(5-cyclobutyl-3-(2-hydroxyphenyl)-5H-pyrrolo[3,2-c]pyridazin-6-yl)-2-azaspiro[3.3]heptan-2-yl)isoxazol-5-yl)-3-methylbutanoyl)-N-((S)-1-(4-ethynylphenyl)ethyl)-4-hydroxypyrrolidine-2-carboxamide] | < 10 | < 50 | A (“A” indicates maximum degradation ≥75%) |

More lines, main results first:

| DC50 [1] [nM] | Dmax [2] [%] | SMILES | BRM HiBit Degradation Maximum (%) [1] |
| --- | --- | --- | --- |
| > 10 | < 50 | CC(C)C(C(=O)N1C[C@H](O)C[C@H]1C(=O)NCc1ccc(F)cc1)c1cc(N2CC3(CC(c4cc5nnc(-c6ccccc6O)cc5n4C4CCC4)C3)C2)no1 (stereo partly drawn) [Compound 50, (2S,4R)-1-(2-(3-(6-(5-cyclobutyl-3-(2-hydroxyphenyl)-5H-pyrrolo[3,2-c]pyridazin-6-yl)-2-azaspiro[3.3]heptan-2-yl)isoxazol-5-yl)-3-methylbutanoyl)-N-(4-fluorobenzyl)-4-hydroxypyrrolidine-2-carboxamide] | A (“A” indicates maximum degradation ≥75%) |
| < 10 | < 50 | C#Cc1ccc(CNC(=O)[C@@H]2C[C@@H](O)CN2C(=O)C(c2cc(N3CC4(CC(c5cc6nnc(-c7ccccc7O)cc6n5C5CCC5)C4)C3)no2)C(C)C)c(OCCCOC)c1 (stereo partly drawn) [Compound 52, (2S,4R)-1-(2-(3-(6-(5-cyclobutyl-3-(2-hydroxyphenyl)-5H-pyrrolo[3,2-c]pyridazin-6-yl)-2-azaspiro[3.3]heptan-2-yl)isoxazol-5-yl)-3-methylbutanoyl)-N-(4-ethynyl-2-(3-methoxypropoxy)benzyl)-4-hydroxypyrrolidine-2-carboxamide] | A (“A” indicates maximum degradation ≥75%) |
| > 10 | < 50 | C#CCNC(=O)[C@@H]1C[C@@H](O)CN1C(=O)C(c1cc(N2CC3(CC(c4cc5nnc(-c6ccccc6O)cc5n4C4CCC4)C3)C2)no1)C(C)C (stereo partly drawn) [Compound 53, (2S,4R)-1-(2-(3-(6-(5-cyclobutyl-3-(2-hydroxyphenyl)-5H-pyrrolo[3,2-c]pyridazin-6-yl)-2-azaspiro[3.3]heptan-2-yl)isoxazol-5-yl)-3-methylbutanoyl)-4-hydroxy-N-(prop-2-yn-1-yl)pyrrolidine-2-carboxamide] | A (“A” indicates maximum degradation ≥75%) |
| < 10 | < 50 | C#Cc1ccc(CNC(=O)[C@@H]2C[C@@H](O)CN2C(=O)C(c2cc(N3CC4(CC(c5cc6nnc(-c7ccccc7O)cc6n5C5CCC5)C4)C3)no2)C(C)C)cc1 (stereo partly drawn) [Compound 57, (2S,4R)-1-(2-(3-(6-(5-cyclobutyl-3-(2-hydroxyphenyl)-5H-pyrrolo[3,2-c]pyridazin-6-yl)-2-azaspiro[3.3]heptan-2-yl)isoxazol-5-yl)-3-methylbutanoyl)-N-(4-ethynylbenzyl)-4-hydroxypyrrolidine-2-carboxamide] | A (“A” indicates maximum degradation ≥75%) |
| < 10 | < 50 | C#Cc1ccc(CNC(=O)[C@@H]2C[C@@H](O)CN2C(=O)C(c2cc(N3CC4(CC(c5cc6nnc(-c7ccccc7O)cc6n5C5CCC5)C4)C3)no2)C(C)C)c(OC)c1 (stereo partly drawn) [Compound 58, (2S,4R)-1-(2-(3-(6-(5-cyclobutyl-3-(2-hydroxyphenyl)-5H-pyrrolo[3,2-c]pyridazin-6-yl)-2-azaspiro[3.3]heptan-2-yl)isoxazol-5-yl)-3-methylbutanoyl)-N-(4-ethynyl-2-methoxybenzyl)-4-hydroxypyrrolidine-2-carboxamide] | A (“A” indicates maximum degradation ≥75%) |
| > 10 | < 50 | C#Cc1ccc(CNC(=O)[C@@H]2C[C@@H](O)CN2C(=O)C(c2cc(N3CC4(CC(c5cc6nnc(-c7ccccc7O)cc6n5C5CCC5)C4)C3)no2)C(C)C)c(Cl)c1 (stereo partly drawn) [Compound 59, (2S,4R)-N-(2-chloro-4-ethynylbenzyl)-1-(2-(3-(6-(5-cyclobutyl-3-(2-hydroxyphenyl)-5H-pyrrolo[3,2-c]pyridazin-6-yl)-2-azaspiro[3.3]heptan-2-yl)isoxazol-5-yl)-3-methylbutanoyl)-4-hydroxypyrrolidine-2-carboxamide] | A (“A” indicates maximum degradation ≥75%) |
